Results reported in patent publication US20190201541A1, “ANTI-CD22 ANTIBODY-MAYTANSINE CONJUGATES, COMBINATIONS, AND METHODS OF USE THEREOF” (Triphase Accelerator U.S. Corporation, priority 2017, published 2019).

Legend:
Type in all cases: cell-based
Ramos cells = assay: In vitro cytotoxicity, Cell Titer-Glo, 5 d; conditions: Homo sapiens, 120 h, 5 d incubation, read-out: IC50 against Ramos cells
Procedure: (§1) The CD22-positive B-cell lymphoma cell lines, Ramos and WSU-DLCL2, were obtained from the ATCC and DSMZ cell banks, respectively. The cells were maintained in RPMI-1640 medium (Cellgro, Manassas, Va.) supplemented with 10% fetal bovine serum (Invitrogen, Grand Island, N.Y.) and Glutamax (Invitrogen). 24 h prior to plating, cells were passaged to ensure log-phase growth. On the day of plating, 5000 cells/well were seeded onto 96-well plates in 90 μL normal growth medium supplemented with […] and 10 µg/mL streptomycin (Cellgro). Cells were treated at various concentrations with 10 μL of diluted analytes, and the plates were incubated at 37° C. in an atmosphere of 5% CO2. After 5 d, 100 μL/well of Cell Titer-Glo reagent (Promega, Madison, Wis.) was added, and luminescence was measured using a Molecular Devices SpectraMax M5 plate reader. GraphPad Prism software was used for data analysis.

WSU-DLCL2 cells = assay: In vitro cytotoxicity, Cell Titer-Glo, 5 d; conditions: Homo sapiens, WSUDLCL2, 120 h; 5 d incubation; read-out: IC50 against WSU-DLCL2 cells
Procedure: as §1

[1] = tested on: Ramos cells engineered to express MDR1 (MDR1+); assay: In vitro cytotoxicity assay on MDR1-expressing cells; conditions: versus wild-type cells
Procedure: (§2) MDR1 (ABCB1) cDNA was obtained from Sino Biological and cloned into a pEF plasmid with a hygromycin selection marker. An AMAXA Nucleofector™ instrument was used to electroporate Ramos (ATCC CRL-1923) and WSU-DLCL2 (DSMZ ACC 575) cells according to the manufacturer's instructions. After selection with hygromycin (Invitrogen 10687010), the pools were enriched with paclitaxel treatment (25 nM for up to 10 days) to further select cells with functional MDR1. The resulting cells were maintained under hygromycin selection in RPMI (Gibco 21870-092) supplemented with 10% fetal bovine serum (FBS) and 1× GlutaMax (Gibco 35050-079).
(§3) Cell lines were plated in 96-well plates (Costar 3610) at a density of 5×10^4 cells/well in 100 μL of growth media and allowed to rest for 5 h. Serial dilution of test samples was performed in RPMI at 6× the final concentration and 20 μL was added to the cells. After incubation at 37° C. with 5% CO2 for 5 days, viability was measured using a Promega CellTiter 96® AQueous One Solution Cell Proliferation Assay (G3581) according to the manufacturer's instructions. GI50 curves were calculated in GraphPad Prism using the ADC's drug-to-antibody ratio (DAR) value to normalize the dose to the payload concentration.

[2] = tested on: WSU-DLCL2 cells engineered to express MDR1 (MDR1+); assay: as above
Procedure: as §2, §3

## COc1cc2cc(c1Cl)N(C)C(=O)C[C@H](OC(=O)[C@H](C)N(C)C(C)=O)[C@]1(C)O[C@H]1[C@H](C)[C@@H]1C[C@@](O)(NC(=O)O1)[C@H](OC)/C=C/C=C(\C)C2 [free maytansine, maytansine]
Ramos cells
  IC50: 0.04 nM
WSU-DLCL2 cells
  IC50: 0.086 nM
[1]
  loss of efficacy in MDR1+ Ramos cells: ~10 fold
[2]; cyclosporin cotreatment
  potency in MDR1+ WSU-DLCL2 cells on cotreatment with cyclosporin (MDR1 inhibitor): restored the original potency
[2]; versus wild-type cells
  loss of efficacy in MDR1+ WSU-DLCL2 cells: ~10 fold
